Series [1] is described as follows: Kinetic solubility of the compound in ph 7.4 PBS buffer measured after 24 hrs shaken by HPLC and UPLC system. The following applies: read-out: Kinetic_solubility. Format: physicochemical.
Series [2] deals with Hippocampal neurone. The series can be described thus: Rescuing beta-amyloid induced neuronal cell damage in Sprague-Dawley rat primary hippocampal cell culture (composed of 60% primary neuron, 20% microglia and 20% astrocyte) assessed as decrease in soluble oligomeric Abeta-containing media (7PA2 cells) induced microgliosis (Iba1) at 500 nM by immunostaining analysis. The class given is functional, cell-based.

A further series has as its target Cytochrome P450 2C19 (Homo sapiens, UniProt P33261). Briefly: Inhibition of human liver microsomes CYP2C19 measured after 10 mins incubation by LC-MS analysis. The class given is ADME, Microsome.
A short description of series [3]: Metabolic stability in mouse liver microsomes assessed as intrinsic clearance measured up to 60 mins by LC-MS/MS analysis. The class given is ADME, Microsome. The following applies: 1 h.
Series [4] deals with Hippocampal neurone. The series can be described thus: Rescuing beta-amyloid induced neuronal cell damage in Sprague-Dawley rat primary hippocampal cell culture (composed of 60% primary neuron, 20% microglia and 20% astrocyte) assessed as decrease in soluble oligomeric Abeta-containing media (7PA2 cells) induced functional synapses by measuring decrease in SynI clustering level at 100 nM. The class given is cell-based.

The target in another series is T1, Cytochrome P450 1A2 (Homo sapiens, UniProt P05177).
T1 sequence (P05177 whole entry): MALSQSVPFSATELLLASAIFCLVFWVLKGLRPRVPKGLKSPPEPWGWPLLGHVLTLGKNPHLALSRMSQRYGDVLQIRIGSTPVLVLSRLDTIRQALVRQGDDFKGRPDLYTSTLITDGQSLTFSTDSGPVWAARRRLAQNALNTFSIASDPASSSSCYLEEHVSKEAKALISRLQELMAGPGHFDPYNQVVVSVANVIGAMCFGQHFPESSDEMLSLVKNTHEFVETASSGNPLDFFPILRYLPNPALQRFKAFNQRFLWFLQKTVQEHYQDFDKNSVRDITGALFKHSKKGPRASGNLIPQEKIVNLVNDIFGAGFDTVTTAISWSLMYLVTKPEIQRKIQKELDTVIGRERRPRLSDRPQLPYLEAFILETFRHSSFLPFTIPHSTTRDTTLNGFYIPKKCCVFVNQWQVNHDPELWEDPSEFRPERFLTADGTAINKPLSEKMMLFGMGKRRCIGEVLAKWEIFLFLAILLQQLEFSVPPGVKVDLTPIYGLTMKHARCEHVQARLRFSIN
The series can be described thus: Inhibition of human liver microsomes CYP1A2 measured after 10 mins incubation by LC-MS analysis. Format: ADME, Microsome.

A short description of series [5]: Cytotoxicity against Sprague-Dawley rat primary hippocampal cells at 100 nM. The following applies: hippocampal neurone, 0.1 µM. Format: toxicity, cell-based.
For series [6], the target named is T2, Short transient receptor potential channel 6 (Homo sapiens) (UniProt Q9Y210).
T2 sequence (whole entry): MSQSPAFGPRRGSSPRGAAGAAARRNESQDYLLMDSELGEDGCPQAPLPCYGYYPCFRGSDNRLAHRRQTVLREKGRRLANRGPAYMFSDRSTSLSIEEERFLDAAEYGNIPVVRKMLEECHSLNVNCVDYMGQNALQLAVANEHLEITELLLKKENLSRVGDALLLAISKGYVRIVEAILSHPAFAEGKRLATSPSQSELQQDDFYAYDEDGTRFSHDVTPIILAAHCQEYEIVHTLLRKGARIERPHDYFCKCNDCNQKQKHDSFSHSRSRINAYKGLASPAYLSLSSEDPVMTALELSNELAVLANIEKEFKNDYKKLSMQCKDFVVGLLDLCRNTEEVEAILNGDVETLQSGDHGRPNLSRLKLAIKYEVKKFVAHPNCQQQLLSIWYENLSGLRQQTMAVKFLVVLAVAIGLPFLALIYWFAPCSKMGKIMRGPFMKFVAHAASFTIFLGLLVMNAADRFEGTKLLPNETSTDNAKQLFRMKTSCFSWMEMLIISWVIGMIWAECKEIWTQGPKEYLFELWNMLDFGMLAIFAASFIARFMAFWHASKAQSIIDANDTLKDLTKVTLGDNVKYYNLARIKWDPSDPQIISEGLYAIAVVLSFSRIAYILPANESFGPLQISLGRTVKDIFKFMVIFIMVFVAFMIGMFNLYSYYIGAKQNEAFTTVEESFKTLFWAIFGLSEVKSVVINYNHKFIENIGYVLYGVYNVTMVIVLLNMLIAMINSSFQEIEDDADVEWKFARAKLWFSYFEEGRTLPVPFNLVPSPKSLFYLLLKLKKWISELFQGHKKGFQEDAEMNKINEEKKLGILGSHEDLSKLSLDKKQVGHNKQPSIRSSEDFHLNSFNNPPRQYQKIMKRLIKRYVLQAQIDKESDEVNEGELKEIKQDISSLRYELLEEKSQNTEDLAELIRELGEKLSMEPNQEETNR
Briefly: Antagonist activity at human TRPC6 expressed in HEK293 cells assessed as inhibition of carbachol-induced activity at 10 uM measured after 48 hrs by Whole-cell patch clamp electrophysiology. The class given is cell-based.

The nature of series [7]: Metabolic stability in mouse liver microsomes assessed as half life measured up to 60 mins by LC-MS/MS analysis. The class given is ADME, Microsome. The following applies: 1 h.
Series [8] has as its system Hippocampal neurone. The series can be described thus: Rescuing beta-amyloid induced neuronal cell damage in Sprague-Dawley rat primary hippocampal cell culture (composed of 60% primary neuron, 20% microglia and 20% astrocyte) assessed as decrease in soluble oligomeric Abeta-containing media (7PA2 cells) induced astrogliosis (GFAP) at 500 nM by immunostaining analysis. Format: functional, cell-based.

In series [9] the target is Short transient receptor potential channel 1 (Mus musculus) (UniProt Q61056). Briefly: Antagonist activity at mouse TRPC1 expressed in HEK293 cells assessed as inhibition of carbachol-induced activity at 10 uM measured after 48 hrs by Whole-cell patch clamp electrophysiology. Format: cell-based.
Short transient receptor potential channel 1 (Mus musculus), sequence (Q61056 whole entry): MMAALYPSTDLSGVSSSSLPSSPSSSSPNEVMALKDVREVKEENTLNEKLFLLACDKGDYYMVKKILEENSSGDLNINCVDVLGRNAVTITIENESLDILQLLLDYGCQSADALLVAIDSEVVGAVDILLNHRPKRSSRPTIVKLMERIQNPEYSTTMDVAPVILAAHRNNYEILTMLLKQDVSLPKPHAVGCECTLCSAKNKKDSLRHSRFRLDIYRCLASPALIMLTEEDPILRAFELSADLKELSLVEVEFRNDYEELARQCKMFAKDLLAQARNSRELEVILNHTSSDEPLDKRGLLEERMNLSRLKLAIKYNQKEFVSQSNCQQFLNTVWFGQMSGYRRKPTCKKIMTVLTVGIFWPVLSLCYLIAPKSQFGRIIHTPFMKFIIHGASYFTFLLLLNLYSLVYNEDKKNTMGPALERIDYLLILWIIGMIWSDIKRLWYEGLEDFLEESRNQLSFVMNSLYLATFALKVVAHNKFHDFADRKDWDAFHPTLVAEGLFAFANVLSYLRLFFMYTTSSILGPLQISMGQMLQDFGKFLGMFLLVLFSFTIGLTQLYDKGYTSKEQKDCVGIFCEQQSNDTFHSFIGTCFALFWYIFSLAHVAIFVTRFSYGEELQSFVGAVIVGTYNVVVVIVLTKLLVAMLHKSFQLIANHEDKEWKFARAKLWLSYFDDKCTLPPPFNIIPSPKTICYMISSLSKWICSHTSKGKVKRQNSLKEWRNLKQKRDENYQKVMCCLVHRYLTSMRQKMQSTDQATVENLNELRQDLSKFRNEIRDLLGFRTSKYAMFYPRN
The next series deals with Cytochrome P450 3A4 (Homo sapiens, UniProt P08684). Briefly: Inhibition of human liver microsomes CYP3A4-M measured after 10 mins incubation by LC-MS analysis. Format: ADME, Microsome.
Cytochrome P450 3A4, sequence (P08684 whole entry): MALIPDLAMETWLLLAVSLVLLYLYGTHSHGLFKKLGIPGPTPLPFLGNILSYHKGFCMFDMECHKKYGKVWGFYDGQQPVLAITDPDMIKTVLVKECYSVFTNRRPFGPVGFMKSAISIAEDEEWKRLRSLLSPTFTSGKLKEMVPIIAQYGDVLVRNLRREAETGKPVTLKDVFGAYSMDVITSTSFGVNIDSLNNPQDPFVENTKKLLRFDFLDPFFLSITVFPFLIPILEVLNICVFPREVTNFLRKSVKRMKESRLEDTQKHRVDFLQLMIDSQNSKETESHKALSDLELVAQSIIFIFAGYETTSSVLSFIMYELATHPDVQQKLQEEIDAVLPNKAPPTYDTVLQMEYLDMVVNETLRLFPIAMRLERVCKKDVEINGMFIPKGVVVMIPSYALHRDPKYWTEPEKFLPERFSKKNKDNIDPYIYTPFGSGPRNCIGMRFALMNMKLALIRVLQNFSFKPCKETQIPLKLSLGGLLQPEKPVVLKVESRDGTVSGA
Series [10] concerns the target Transient receptor potential cation channel subfamily M member 8 (Rattus norvegicus) (UniProt Q8R455). The series can be described thus: Antagonist activity at rat TRPM8 expressed in HEK293 cells assessed as inhibition of carbachol-induced activity at 10 uM measured after 48 hrs by Whole-cell patch clamp electrophysiology. The class given is cell-based.
The nature of series [11]: Metabolic stability in human liver microsomes assessed as intrinsic clearance measured up to 60 mins by LC-MS/MS analysis. Format: ADME, Microsome. The following applies: 1 h.

Structures are written as SMILES. In brackets after ≈: the same amount, converted by molar mass. Activity calls are given as the source filed them. The rule behind the calls is not given here.

Cytochrome P450 2C19, sequence (P33261 whole entry): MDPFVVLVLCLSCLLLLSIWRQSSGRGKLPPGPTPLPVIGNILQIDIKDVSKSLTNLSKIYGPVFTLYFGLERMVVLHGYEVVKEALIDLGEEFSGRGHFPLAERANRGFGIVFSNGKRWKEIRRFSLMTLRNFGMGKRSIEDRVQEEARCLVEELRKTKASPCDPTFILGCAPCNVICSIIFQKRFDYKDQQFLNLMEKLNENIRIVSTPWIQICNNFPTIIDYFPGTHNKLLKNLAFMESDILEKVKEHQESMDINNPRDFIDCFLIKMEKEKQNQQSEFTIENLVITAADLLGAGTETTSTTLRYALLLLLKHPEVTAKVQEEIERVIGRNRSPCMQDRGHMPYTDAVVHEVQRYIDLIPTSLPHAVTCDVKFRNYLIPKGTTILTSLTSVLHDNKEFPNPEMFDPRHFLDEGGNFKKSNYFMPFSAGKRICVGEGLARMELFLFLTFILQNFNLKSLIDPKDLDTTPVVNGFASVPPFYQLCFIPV
Transient receptor potential cation channel subfamily M member 8 (Rattus norvegicus), sequence (Q8R455 whole entry, looked up): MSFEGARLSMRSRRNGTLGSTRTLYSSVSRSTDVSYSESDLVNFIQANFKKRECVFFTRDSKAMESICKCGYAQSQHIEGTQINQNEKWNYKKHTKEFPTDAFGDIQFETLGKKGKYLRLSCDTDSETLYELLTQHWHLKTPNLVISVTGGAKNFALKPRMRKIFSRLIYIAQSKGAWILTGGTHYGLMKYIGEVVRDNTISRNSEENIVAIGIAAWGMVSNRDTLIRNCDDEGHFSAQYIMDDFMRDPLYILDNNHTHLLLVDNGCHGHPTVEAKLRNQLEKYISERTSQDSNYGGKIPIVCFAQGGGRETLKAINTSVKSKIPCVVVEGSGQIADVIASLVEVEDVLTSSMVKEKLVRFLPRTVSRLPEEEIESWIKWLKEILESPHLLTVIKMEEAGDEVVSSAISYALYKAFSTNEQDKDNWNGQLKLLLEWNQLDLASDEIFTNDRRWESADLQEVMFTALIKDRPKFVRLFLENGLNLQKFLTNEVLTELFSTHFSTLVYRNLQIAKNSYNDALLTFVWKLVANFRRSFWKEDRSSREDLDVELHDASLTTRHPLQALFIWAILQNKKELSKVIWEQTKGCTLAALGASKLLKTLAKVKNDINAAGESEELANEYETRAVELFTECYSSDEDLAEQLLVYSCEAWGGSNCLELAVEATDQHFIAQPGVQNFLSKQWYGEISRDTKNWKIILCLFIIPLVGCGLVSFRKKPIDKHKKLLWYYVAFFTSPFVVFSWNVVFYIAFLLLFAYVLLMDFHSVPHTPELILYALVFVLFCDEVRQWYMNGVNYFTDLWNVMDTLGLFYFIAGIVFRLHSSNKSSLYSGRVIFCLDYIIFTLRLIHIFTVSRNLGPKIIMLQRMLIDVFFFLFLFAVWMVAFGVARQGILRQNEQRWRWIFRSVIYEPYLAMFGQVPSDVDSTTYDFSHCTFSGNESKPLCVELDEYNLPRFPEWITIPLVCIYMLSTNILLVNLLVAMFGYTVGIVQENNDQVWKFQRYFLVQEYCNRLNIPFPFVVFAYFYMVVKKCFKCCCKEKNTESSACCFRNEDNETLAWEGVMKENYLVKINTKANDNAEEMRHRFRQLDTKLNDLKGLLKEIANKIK

As to `CCNCc1cnn(-c2ccc(-n3ccc(Cl)c(Cl)c3=O)cc2)c1C(F)(F)F`, the solubility kinetic at 24 h in series [1] turned out to be 0.2 µM (≈ 0.0862 µg/mL). Moreover, the outcome with Hippocampal neurone [2], in the series on Hippocampal neurone [4] and in the series on Hippocampal neurone [8] was Active. In addition, the IC50 against Cytochrome P450 2C19 was 41.5 µM; against Cytochrome P450 1A2, greater than 50 µM; on Cytochrome P450 3A4, greater than 50 µM. The results for the CLH in [3] and in [11] were 33 µL/min/mg and 3.73 µL/min/mg, respectively. In addition, the Activity entry in series [5] was “Non-toxic”. Moreover, the outcome in series [6], in series [9] and in [10] was inactive. Also, the t1/2 in series [7] is 21 min.
